Source: patent publication US11266642B2, “Small molecule inhibitors of HLA-DR3 binding for treating autoimmune thyroiditis” (ICAHN SCHOOL OF MEDICINE AT MOUNT SINAI, priority 2015, dated 2022)
Where two headings read alike, the source gives them in different places.

What was measured:
[1] = test system: T-cell proliferative responses to hTg; assay: In vivo IP administration in hTg-immunized NOD-DR3 mice (EAT), T-cell proliferation CFSE assay; parameters: species or system mouse; settings: IP 125 μg on days -2, -1, 5, 6; sacrifice day 21; vehicle 2.3 ± 0.5; p=0.0432
Text: Mice transgenic for DRB1*0301 were originally generated by G. J Hämmerling and co-workers as previously described [Strauss et al. Immunogenetics 40, 104-108 (1994)]. Briefly, the DR3 (DRA1*0101/DRB1*0301) transgenes were inserted into (C57BL/6×DBA/2) F1 embryos and the progeny were back-crossed to B10.Q mice. The DR3 mice were crossed with I-Aβ knockouts (C57BL/6×129) to obtain mice lacking murine MHC class II and expressing human DR3. The transgenic mouse line was maintained by intercrossing. The background non-MHC genes in the DR3 transgenic line was 50% C57BL/10 genes and 50% contribution from CBA, C57BL/6, and 129 genes. These mice were then back-crossed into NOD background to produce the NOD-DR3 mice [Flynn et al. J Autoimmun, 17, 7-15 (2001)]. The transgene was confirmed to be HLA-DRβ1-Arg74 positive. […]
Seven female NOD-DR3 mice (6-10 weeks old) were injected IP with […] Compound Ia on day (−2) and day (−1), followed by SQ immunization of human thyroglobulin (hTg) mixed with CFA on day 0. […] The stimulation index was calculated by using the formula described above: Stimulation index=[% proliferating lymphocytes (hTg, peptide or mitogen-treated)]/[% proliferating lymphocytes (medium-treated)].

Interferon (IFN gamma) = assay: Cytokine production by immunized mice splenocytes (Milliplex/Luminex); assay type: cell-based; settings: Mus musculus, Splenocyte, 1 μM compound, 48 hours
Method: Immunized mice splenocytes were incubated with 1 μM compound Ia together with human thryroglobulin (40 μg/mL) or Tg.2098 (20 μg/mL) to assess the inhibition of cytokines production by compound Ia. […] Milliplex mouse cytokines/chemokine magnetic panel (Catalog no. MCYTOMAG-70K, EMD Millipore Corporation, Billerica, Mass.) was used to assay the cytokines. Splenocytes were plated at 2×10^6 cells per well in 500 uL of medium (RPMI/10% FBS). Supernatants were collected 48 hours after stimulation with hTg or peptides and stored at −80° C. until the assay was performed. To begin the assay, the 96-well plate supplied in the kit was washed with the wash buffer supplied and the plate was shaken for 10 min at room temperature. Standards and quality controls were added, followed by the samples. The pre-mixed beads (IFN gamma, IL-2, IL-4, IL-10) were sonicated and vortexed, and then added to the wells. After shaking the plate overnight at 4° C., the plate was washed twice with wash buffer. Detection antibodies were added for 1 h at room temperature, and Streptavidin-Phycoerythrin was added for 30 min at room temperature. The plate was washed twice and sheath fluid was added to resuspend the beads for 5 min before reading in Luminex 200 with xPONENT software (Luminex, Austin, Tex.) […]

COc1ccc2cc1Oc1ccc(cc1)C[C@H]1c3c(cc4c(c3Oc3cc5c(cc3OC)CCN(C)[C@@H]5C2)OCO4)CCN1C [Compound Ia, cepharanthine]
Stimulation index, T-cell stimulation in response to hTg [1]: 1.3 ± 0.2
inhibition at 1 µM (Interferon (IFN gamma); Tg.2098 20 μg/mL, p<0.0001, read-out: Interferon inhibition, Tg.2098 stimulation): 48.8%
inhibition at 1 µM (Interferon (IFN gamma); hTg 40 μg/mL, p=0.002, read-out: Interferon inhibition, hTg stimulation): 38.7%
